# Data taken from ChEMBL document CHEMBL3217516, “Library synthesis and cytotoxicity of a family of 2-phenylacrylonitriles and discovery of an estrogen dependent breast cancer lead compound” (Medchemcomm, 2011).
# Columns and labels:
# MCF7 [1] = assay: Selectivity ratio of GI50 for human MIA cells to GI50 for human MCF7 cells; type: functional
# MCF7 [2] = assay: Selectivity ratio of GI50 for human HT29 cells to GI50 for human MCF7 cells; type: functional
# [3] = Selectivity ratio of GI50 for human MCF10A cells to GI50 for human MCF7 cells; type: ADME, cell-based, MCF-10A; conditions: MCF10A cells and MCF7 cells, read-out: RatioGI50
# [4] = Cytotoxicity against human MCF10A cells after 72 hrs by MTT assay; type: cell-based, MCF-10A
# A2780 [5] = assay: Selectivity ratio of GI50 for human A2780 cells to GI50 for human MCF7 cells; type: functional
# MCF7 [6] = assay: Selectivity ratio of GI50 for human SJ-G2 cells to GI50 for human MCF7 cells; type: functional
# MCF7 [7] = assay: Selectivity ratio of GI50 for human SW480 cells to GI50 for human MCF7 cells; type: functional
# MCF7 [8] = assay: Selectivity ratio of GI50 for human A431 cells to GI50 for human MCF7 cells; type: functional
# MCF7 [9] = assay: Selectivity ratio of GI50 for human MDA-MB-231 cells to GI50 for human MCF7 cells; type: functional
# [10] = Cytotoxicity against human MIA cells after 72 hrs by MTT assay; type: functional
# DU-145 [11] = assay: Selectivity ratio of GI50 for human DU145 cells to GI50 for human MCF7 cells; type: functional
# [12] = Cytotoxicity against human MDA-MB-231 cells after 72 hrs by MTT assay; type: cell-based
# MCF7 [13] = assay: Selectivity ratio of GI50 for human H460 cells to GI50 for human MCF7 cells; type: functional
# MCF7 [14] = assay: Selectivity ratio of GI50 for human BE(2)-C cells to GI50 for human MCF7 cells; type: functional
# SW480 [15] = assay: Selectivity ratio of GI50 for human DU145 cells to GI50 for human SW480 cells; type: functional
# SW480 [16] = assay: Selectivity ratio of GI50 for human H460 cells to GI50 for human SW480 cells; type: functional
# [17] = Cytotoxicity against human BE(2)-C cells after 72 hrs by MTT assay; type: functional
# [18] = Selectivity ratio of GI50 for human H460 cells to GI50 for human A431 cells; type: functional
# [19] = Selectivity ratio of GI50 for human H460 cells to GI50 for human MIA cells; type: functional
# [20] = Cytotoxicity against human H460 cells after 72 hrs by MTT assay; type: functional; conditions: NCI-H460, 72 h
# [21] = Selectivity ratio of GI50 for human H460 cells to GI50 for human BE(2)-C cells; type: functional
# DU-145 [22] = assay: Selectivity ratio of GI50 for human DU145 cells to GI50 for human BE(2)-C cells; type: functional
# A2780 [23] = assay: Selectivity ratio of GI50 for human H460 cells to GI50 for human A2780 cells; type: functional
# DU-145 [24] = assay: Selectivity ratio of GI50 for human DU145 cells to GI50 for human HT29 cells; type: functional
# DU-145 [25] = assay: Selectivity ratio of GI50 for human DU145 cells to GI50 for human A431 cells; type: functional
# SW480 [26] = assay: Cytotoxicity against human SW480 cells after 72 hrs by MTT assay; type: functional; conditions: SW480, 72 h
# [27] = Cytotoxicity against human SJ-G2 cells after 72 hrs by MTT assay; type: functional; conditions: SJ-G2, 72 h
# A2780 [28] = assay: Selectivity ratio of GI50 for human DU145 cells to GI50 for human A2780 cells; type: functional
# [29] = Selectivity ratio of GI50 for human H460 cells to GI50 for human SJ-G2 cells; type: functional
# DU-145 [30] = assay: Selectivity ratio of GI50 for human H460 cells to GI50 for human DU145 cells; type: functional
# A2780 [31] = assay: Cytotoxicity against human A2780 cells after 72 hrs by MTT assay; type: functional; conditions: A2780, 72 h
# DU-145 [32] = assay: Cytotoxicity against human DU145 cells after 72 hrs by MTT assay; type: functional; conditions: DU-145, 72 h
# HT-29 [33] = assay: Selectivity ratio of GI50 for human H460 cells to GI50 for human HT29 cells; type: functional
# A-431 = assay: Cytotoxicity against human A431 cells after 72 hrs by MTT assay; type: functional; conditions: A-431, 72 h
# HT-29 [34] = assay: Cytotoxicity against human HT-29 cells after 72 hrs by MTT assay; type: functional; conditions: HT-29, 72 h
# DU-145 [35] = assay: Selectivity ratio of GI50 for human DU145 cells to GI50 for human H460 cells; type: functional
# MCF7 [36] = assay: Cytotoxicity against human MCF7 cells after 72 hrs by MTT assay; type: functional; conditions: MCF7, 72 h
# DU-145 [37] = assay: Selectivity ratio of GI50 for human DU145 cells to GI50 for human SJ-G2 cells; type: functional
# DU-145 [38] = assay: Selectivity ratio of GI50 for human DU145 cells to GI50 for human MIA cells; type: functional
SMILES,selectivity ratio [3],GI50 at 72 h [4],RatioGI50 (MCF7 [9]),GI50 [10],GI50 at 72 h [12],GI50 [17],GI50 [20],GI50 (SW480 [26]),GI50 [27],GI50 (A2780 [31]),GI50 (DU-145 [32]),GI50 (A-431),GI50 (HT-29 [34]),GI50 (MCF7 [36]),other results
N#C/C(=C\c1ccc([N+](=O)[O-])cc1)c1ccc(Cl)c(Cl)c1,126,16 µM,268,27 µM,34 µM,–,–,–,–,–,–,–,–,–,RatioGI50 (MCF7 [1]): 543; RatioGI50 (MCF7 [2]): 25; RatioGI50 (A2780 [5]): 543; RatioGI50 (MCF7 [6]): 543; RatioGI50 (MCF7 [7]): 543; RatioGI50 (MCF7 [8]): 543; RatioGI50 (DU-145 [11]): 543; RatioGI50 (MCF7 [13]): 543; RatioGI50 (MCF7 [14]): 543
N#C/C(=C\c1cccc(Cl)c1)c1ccc(Cl)c(Cl)c1,–,–,–,15 µM,–,12 µM,40 µM,8.9 µM,12 µM,11 µM,55 µM,16 µM,8.4 µM,7.2 µM,RatioGI50 (SW480 [15]): 5; RatioGI50 (SW480 [16]): 5; RatioGI50 [18]: 5; RatioGI50 [19]: 5; RatioGI50 [21]: 5; RatioGI50 (DU-145 [22]): 5; RatioGI50 (A2780 [23]): 5; RatioGI50 (DU-145 [24]): 5; RatioGI50 (DU-145 [25]): 5; RatioGI50 (A2780 [28]): 5; RatioGI50 [29]: 5; RatioGI50 (DU-145 [30]): 5; RatioGI50 (HT-29 [33]): 5; RatioGI50 (DU-145 [35]): 5; RatioGI50 (DU-145 [37]): 5; RatioGI50 (DU-145 [38]): 5
N#C/C(=C\c1ccc[nH]1)c1ccc(Cl)c(Cl)c1,126,28 µM,268,46 µM,46 µM,25 µM,5.7 µM,23 µM,20 µM,16 µM,41 µM,3.2 µM,15 µM,0.56 µM,–
